Measurements reported in patent US8227621B2, “Cyanine dyes and methods of use” (priority 2005, dated 2012).
Square brackets hold non-standard residues; d marks the D form. Peptide text beside a SMILES is read from it. NIR Reporter Dye A = not defined here; Sta = CC(C)C[C@H](N)[C@@H](O)CC(=O)O; Compound 6 = not defined here

How the values were obtained:
Assay type in all cases: biochemical
[1] = biological target: T1, BACE-1 protease enzyme (Homo sapiens, UniProt P56817); assay: Effect of DMSO concentration on BACE-1 enzyme activity; conditions: vs absence of DMSO
T1 construct: purchased Calbiochem
Procedure: In this experiment, the BACE-1 protease substrate having Structure IV (200 nM), was incubated with various amounts of BACE-1 protease enzyme (0 to 100 nM) and DMSO concentrations (e.g., 0, 2, 5 or 10%) at room temperature for 1 hour. The enzymatic reactions were then terminated upon the addition of stop buffer and the fluorescence intensities were measured on an Aerius® imaging system. The addition of stop buffer further diluted the DMSO concentrations in the reaction solution from 0, 2, 5, 10% DMSO to 0, 0.5, 1.25, 2.5%, respectively. The change in fluorescence intensity observed for the different DMSO concentrations is a reflection of the interference of DMSO on the BACE-1 enzyme activity. […] DMSO concentration increase to 5% and 10%, the BACE-1 enzyme activity decreased 20% and 35% respectively of the original enzyme activity at the absence of DMSO throughout the enzyme concentration range.

[2] = biological target: T2, HIV-1 protease (Human immunodeficiency virus type 1 group M subtype B, UniProt P04585); assay: Effect of DMSO and compound interferences on the HIV-1 protease assay; conditions: DMSO 0%, 2.5%, 5% and 10%; 2.5-80 nM protease
T2 construct: Recombinant HIV-1 protease; purchased BACHEM Biosciences
Procedure: To measure the tolerance of the HIV-1 protease assay to the presence of dimethyl sulfoxide (DMSO), 1 μM of substrate was incubated with 80 nM, 40 nM, 20 nM, 10 nM, 5 nM and 2.5 nM of HIV-1 protease in an assay buffer containing 10%, 5%, 2.5% or 0% DMSO. After incubation at 37° C. for 1.5 hours, the plate was treated with 0.8 M sodium phosphate stop buffer and then scanned on Aerius® System (LI-COR® Biosciences).
The robustness of the protease assay was evaluated against fluorescent, color quenching and light scattering interferences, which are the three major sources of compound interferences in high-throughput fluorescent assay screening. In these experiments, protease activity of the HIV-protease assay of the invention was measured in the presence of various amounts of the interference source and compared to that in the absence of the interference.
Fluorescein, a highly fluorescent compound, was chosen as the model fluorescent compound interference source. A series of fluorescein concentrations were mixed with the HIV-1 peptide substrate in the assay buffer system. These wells were then treated either with the enzyme (positive wells) or without the enzyme (negative wells) and incubated at 37° C. for 1 hour.

[3] = test system: trypsin; assay: NIR-dye labeled casein protease assay with trypsin; conditions: 10 μg/mL aprotinin; 20 nM casein conjugate, 5 μg/mL trypsin
Procedure: Casein-NIR Reporter Dye B concentration is 20 nM, trypsin concentration is 5 μg/mL, and aprotinin concentration varies from 10 μg/mL, 5 μg/mL, 1.25 μg/mL, 0.31 μg/mL, 78 ng/mL, 19.5 ng/mL, 4.9 ng/mL, to 1.2 ng/mL. Trypsin was pre-incubated with the inhibitors for 1 hour at 37° C.
Described below is a general method based on the over labeling of casein, with a near-infrared dye, i.e., NIR Reporter Dye B (a NIR-dye labeled casein substrate), for a protease activity microplate assay. The model protease assay uses the labeled casein as the substrate with trypsin as the enzyme, and the fluorescence emission is measured on a LI-COR® Biosciences' Aerius® microplate reader. NIR Reporter Dye B emits at 786 nm, yet it is still a very bright dye (see, FIG. 10).
The proteolytic reactions are carried out in 96-well plates with 50 mM TRIS buffer pH 7.8. […] (The reagent […] and its protein labeling and purification protocols are from LI-COR® Biosciences. Casein, trypsin, and aprotinin are all purchased from Sigma-Aldrich. Protein molecular weight markers labeled with a 700 nm fluorescence dye are from LI-COR® Biosciences.) The reactants are incubated at 37° C. for one hour and then stopped by adding aprotinin to 10 μg/mL final concentration. Then, after being spun, the plates are read on an the LI-COR® microplate reader Aerius®. […]

[4] = test system: human recombinant β-secretase (BACE-1); assay: BACE-1 enzyme activity assay; conditions: 200 nM substrate, 400 nM BACE-1 mixture, 100 minutes
Procedure: Purified human recombinant β-secretase (BACE-1) is purchased from Calbiochem (CA). The batch size of 50 μg is supplied as a mixture of the ˜68-70 KDa proenzyme and the ˜65-67 KDa mature enzyme in lyophilized form from sterile-filtered 150 mM NaCl, 50 mM Tris-HCl, pH 7.5. The product is then re-constituted with 100 μL sterile water immediately prior to use.
The BACE-1 assay buffer consists of 50 mM sodium acetate, 10 mM Tris-HCl, 10 mM NaCl, 0.002% Triton X-100, pH adjusted to 4.5. […] A characterized BACE-1 inhibitor, β-secretase inhibitor III, is purchased from Calbiochem (CA) (Cat # 565780). […] Two solid-state diode lasers at 680 nm and 780 nm are used as the excitation light sources and their corresponding fluorescence detection is accomplished by two silicon avalanche photodiodes at 710±10 nm and 810±10 nm. […]
The effect of enzyme concentration on proteolytic activity of the β-secretase (β-site amyloid precursor protein cleaving enzyme 1; BACE-1), is shown in FIGS. 20A-C. […] The enzymatic reaction was stopped by addition of BACE-1 stop buffer and the fluorescence was recorded by Aerius® infrared imaging system. […] Based on the fluorescence standard curve obtained (FIG. 20B), the degree of hydrolysis of BACE-1 peptide was determined as 53%. With increased amount of hydrolysis, higher fluorescence increase is expected.

[5] = biological target: human recombinant β-secretase (BACE-1) (Homo sapiens, UniProt P56817); assay: BACE-1 enzyme inhibition assay; conditions: 100 nM BACE-1 mixture, 200 nM substrate Structure IV, room temperature 1 hour, Rodbard model
human recombinant β-secretase (BACE-1) (Homo sapiens, UniProt P56817), sequence (P56817 46-457 limits assumed): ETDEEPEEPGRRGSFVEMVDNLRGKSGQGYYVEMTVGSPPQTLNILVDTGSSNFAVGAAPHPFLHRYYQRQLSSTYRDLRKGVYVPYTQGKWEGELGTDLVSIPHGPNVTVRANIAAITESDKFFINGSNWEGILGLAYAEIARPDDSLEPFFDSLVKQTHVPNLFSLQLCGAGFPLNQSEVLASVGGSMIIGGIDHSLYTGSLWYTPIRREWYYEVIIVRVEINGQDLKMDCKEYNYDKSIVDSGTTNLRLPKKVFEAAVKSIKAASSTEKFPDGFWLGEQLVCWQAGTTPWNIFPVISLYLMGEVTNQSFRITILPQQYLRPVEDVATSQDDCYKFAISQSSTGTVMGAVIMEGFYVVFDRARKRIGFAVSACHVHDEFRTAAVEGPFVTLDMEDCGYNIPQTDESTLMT
Procedure: The BACE-1 assay buffer consists of 50 mM sodium acetate, 10 mM Tris-HCl, 10 mM NaCl, 0.002% Triton X-100, pH adjusted to 4.5. The BACE-1 stop buffer is a 0.8 M sodium phosphate buffer with 0.25 mg/mL BSA (pH 7.8). A characterized BACE-1 inhibitor, β-secretase inhibitor III, is purchased from Calbiochem (CA) (Cat # 565780). […] Two solid-state diode lasers at 680 nm and 780 nm are used as the excitation light sources and their corresponding fluorescence detection is accomplished by two silicon avalanche photodiodes at 710±10 nm and 810±10 nm. […]
The serially diluted solutions containing the BACE-1 peptide inhibitor (final concentrations from 0 to 2500 nM) were mixed with BACE-1 in BACE-1 assay buffer (total BACE-1 mixture final concentration of 100 nM) for 15 minutes followed by the addition of the BACE-1 protease substrate having Structure IV in a final concentration 200 nM. […] The fluorescence intensity was measured on Aerius® infrared imaging system (FIG. 22A).

T1 sequence (P56817 46-457 limits assumed): as above

C[S+](C)[O-] [DMSO, dimethyl sulfoxide]
reduction of BACE-1 protease enzyme activity ([1]; DMSO 2%): ≤ 10% | decrease of BACE-1 enzyme activity ([1]; DMSO 5%): 20% | decrease of BACE-1 enzyme activity ([1]; DMSO 10%): 35% | effect on cleavage of peptide substrate [2]: no significant effect

aprotinin
fluorescence intensity change between total trypsin activity suppression and no inhibition [3]: more than 20 fold

Structure IV: β-secretase (BACE-1) protease substrate peptide conjugated to NIR Reporter Dye A and Compound 6 (SEQ ID NO:5) ({NIR Reporter Dye A}-SEVNLDAEFRK(Compound 6)RR-OH; reading uncertain)
fluorescence intensity increase over substrate not treated by enzyme ([4]; room temperature): 12 fold | degree of hydrolysis of BACE-1 peptide ([4]; from fluorescence standard curve): 53%

CC(C)C[C@H](NC(=O)[C@H](CC(N)=O)NC(=O)[C@@H](NC(=O)[C@@H](N)CCC(=O)O)C(C)C)[C@@H](O)CC(=O)N[C@H](C(=O)N[C@@H](C)C(=O)N[C@@H](CCC(=O)O)C(=O)N[C@@H](Cc1ccccc1)C(N)=O)C(C)C [Statine-derived peptide inhibitor, H-Glu-Val-Asn-Statine-Val-Ala-Glu-Phe-NH2] (H-EVN[Sta]VAEF-NH2)
IC50 [5]: 57 nM
